Legend:
in vivo = conditions: female, Balb/c, mouse, plasma, po
Btk = Btk (Homo sapiens (Human), UniProt Q06187); assay: Btk acellular kinase assay (TR-FRET); conditions: Btk IC50 relative to compound 4
DHL-6 cells = assay: DHL-6 cell growth (Alamar Blue assay); type: cell-based; conditions: 3E4 DHL-6 cells/well in complete media, 0.1% DMSO

Sequence of Btk (Q06187 whole entry): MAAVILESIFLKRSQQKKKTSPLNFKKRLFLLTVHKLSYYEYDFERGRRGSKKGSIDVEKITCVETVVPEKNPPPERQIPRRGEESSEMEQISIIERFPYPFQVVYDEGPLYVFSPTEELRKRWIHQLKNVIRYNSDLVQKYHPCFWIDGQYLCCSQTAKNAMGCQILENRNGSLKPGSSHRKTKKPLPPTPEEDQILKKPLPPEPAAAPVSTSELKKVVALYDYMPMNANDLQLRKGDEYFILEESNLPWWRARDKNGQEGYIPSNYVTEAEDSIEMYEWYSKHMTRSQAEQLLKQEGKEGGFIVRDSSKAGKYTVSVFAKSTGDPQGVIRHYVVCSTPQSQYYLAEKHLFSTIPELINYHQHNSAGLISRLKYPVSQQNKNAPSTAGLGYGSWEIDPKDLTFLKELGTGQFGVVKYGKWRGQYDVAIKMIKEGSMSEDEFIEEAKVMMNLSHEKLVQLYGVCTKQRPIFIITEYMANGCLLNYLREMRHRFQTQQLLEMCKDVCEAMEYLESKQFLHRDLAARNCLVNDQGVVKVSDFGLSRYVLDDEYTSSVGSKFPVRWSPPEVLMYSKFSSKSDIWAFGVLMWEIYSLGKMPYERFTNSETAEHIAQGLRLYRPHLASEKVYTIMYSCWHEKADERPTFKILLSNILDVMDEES

## C=CC(=O)N1CCCC(n2nc(-c3ccc(Oc4ccccc4)cc3)c3c(N)ncnc32)C1 (stereo not drawn) [Compound 4, 1-(3-(4-amino-3-(4-phenoxyphenyl)-1H-pyrazolo[3,4-d]pyrimidin-1-yl)piperidin-1-yl)prop-2-en-1-one]
In vivo
  Tmax: 2 h

## C/C=C/C(=O)N1CCCC(n2nc(-c3ccc(Oc4ccccc4)cc3)c3c(N)ncnc32)C1 (stereo not drawn) [Compound 5, (E)-1-(3-(4-amino-3-(4-phenoxyphenyl)-1H-pyrazolo[3,4-d]pyrimidin-1-yl)piperidin-1-yl)but-2-en-1-one]
Btk
  fold less potent than 4: 28 fold

## CN(C)C/C=C/C(=O)N1CCCC(n2nc(-c3ccc(Oc4ccccc4)cc3)c3c(N)ncnc32)C1 (stereo not drawn) [Compound 15, (E)-1-(3-(4-amino-3-(4-phenoxyphenyl)-1H-pyrazolo[3,4-d]pyrimidin-1-yl)piperidin-1-yl)-4-(dimethylamino)but-2-en-1-one]
DHL-6 cells
  growth of DHL-6 cells: inhibit growth
